One series is described as follows: in vitro. In kind it is in vitro ADME. The settings on record: rat, lung cytosol.
For series [1], the target named is T1, rat lung glucocorticoid receptor (Rattus norvegicus, UniProt P06536).
T1 construct: Immediately after resection of the lungs, the tissue was frozen in ice; The cytosol was prepared; from tissue; host or cells: lung cytosol of adrenalectomized male Sprague-Dawley rats
T1 sequence (P06536 1-795): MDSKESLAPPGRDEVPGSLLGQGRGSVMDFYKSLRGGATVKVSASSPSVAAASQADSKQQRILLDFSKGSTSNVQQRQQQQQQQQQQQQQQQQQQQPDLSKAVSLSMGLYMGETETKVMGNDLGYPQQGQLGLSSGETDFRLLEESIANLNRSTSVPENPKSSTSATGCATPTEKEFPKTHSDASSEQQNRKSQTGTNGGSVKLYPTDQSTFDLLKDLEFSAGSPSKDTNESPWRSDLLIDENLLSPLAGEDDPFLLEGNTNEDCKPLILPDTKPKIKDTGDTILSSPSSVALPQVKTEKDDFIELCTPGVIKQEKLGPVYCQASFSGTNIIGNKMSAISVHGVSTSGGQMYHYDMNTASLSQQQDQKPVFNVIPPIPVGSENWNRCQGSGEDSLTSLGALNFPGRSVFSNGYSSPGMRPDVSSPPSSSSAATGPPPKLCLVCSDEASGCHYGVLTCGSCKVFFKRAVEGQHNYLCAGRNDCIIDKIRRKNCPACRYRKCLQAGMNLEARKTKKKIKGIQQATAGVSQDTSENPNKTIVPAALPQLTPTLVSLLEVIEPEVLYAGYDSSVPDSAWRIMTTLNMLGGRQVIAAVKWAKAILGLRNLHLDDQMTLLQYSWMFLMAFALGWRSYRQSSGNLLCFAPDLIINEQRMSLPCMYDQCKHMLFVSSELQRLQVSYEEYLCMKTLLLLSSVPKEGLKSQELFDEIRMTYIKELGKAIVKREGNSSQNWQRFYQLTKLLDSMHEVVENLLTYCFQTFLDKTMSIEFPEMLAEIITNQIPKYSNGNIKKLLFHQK
The experiment in a line: Receptor binding studies ([3H]triamcinolone acetonide displacement). The arrangement: Receptor binding affinity: scale not given here. As to conditions: for RBA: further receptor binding studies (Table X), dexamethasone = 100, * mean ± SE of 3-5 results; for IC50: rat lung cytosol, 10 nM [3H]triamcinolone acetonide, 2 h, 24° C., read-out: IC50; for IC50 / Relative binding affinity (RBA): with Δ1-cortienic acid; for Relative binding affinity (RBA): with respect to dexamethasone (RBA = 100).

The test system of series [2] is forearms of a human volunteer. The experiment in a line: Further human vasoconstriction testing, Method 1. Also: key: 0: normal skin; 1: slight pallor of indistinct outline; 2: pallor with at least two corners outlined; 3: even pallor with a clear outline of the application sites; 4: very intense pallor. In kind it is in vivo. Summed up: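 Each mixture, 50 μL in ethanol, was loaded onto circular 8 mm patches. Once the ethanol had evaporated, the patches were placed on a human volunteer's forearms under a water-impervious film for 3 hr. After the patches were removed, vasoconstriction was scored at intervals from 0 (normal skin) to 4 (very intense pallor). The same individual received all tests, run 2-4 times per compound.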

Usually share remaining stands for the share of the starting amount still present when the sample was taken. As usually defined, the IC50 is the concentration that gives 50% inhibition. For the compound `CCOC(=O)[C@@]1(OC(=O)C(Cl)Cl)CC[C@H]2[C@@H]3CCC4=CC(=O)C=C[C@]4(C)[C@H]3[C@@H](O)C[C@@]21C` [Compound B, Ethyl 17α-dichloroacetoxy-11β-hydroxyandrosta-1,4-dien-3-one-17β-carboxylate], in “in vitro”, the share remaining at 2 h was 75%. The same compound returned a fraction remaining at 2 h, 10 µM in the series “in vitro” of 100%. In addition, the Receptor binding affinity in series [1] (With Δ1-cortienic acid (Table IX)) amounted to 204; in series [1] (Without Δ1-cortienic acid (Table IX)) it was 181. Moreover, the RBA in series [1] is 222 ± 16. In addition, in series [1], the IC50 worked out at 40.1 nM. Besides, the “Relative binding affinity (RBA)” value in series [1] stood at 204. Further, the Vasoconstriction activity in series [2] (3 Hours, 0.01 mM) is 0; in series [2] (3 Hours, 0.05 mM), 1; in series [2] (3 Hours, 0.1 mM), 1; in series [2] (3 Hours, 0.5 mM), 2; in series [2] (3 Hours, 1 mM) it was 3; in series [2] (3 Hours, 5 mM) it was 3. Besides, the Vasoconstriction activity is 4 in series [2] (3 Hours, 10 mM); 0 in series [2] (20 Hours, 0.01 mM); 0 in series [2] (20 Hours, 0.05 mM); 1 in series [2] (20 Hours, 0.1 mM); 1 in series [2] (20 Hours, 0.5 mM); 1 in series [2] (20 Hours, 1 mM). For the same compound, the Vasoconstriction activity is reported as 1 in series [2] (20 Hours, 5 mM); 2 in series [2] (20 Hours, 10 mM); 1 in series [2] (24 Hours, 1 hour re-occlusion at 20-21 hours, 0.01 mM); 1 in series [2] (24 Hours, 1 hour re-occlusion at 20-21 hours, 0.05 mM); 2 in series [2] (24 Hours, 1 hour re-occlusion at 20-21 hours, 0.1 mM); 2 in series [2] (24 Hours, 1 hour re-occlusion at 20-21 hours, 0.5 mM).
In “in vitro”, `CC(C)OC(=O)[C@@]1(OC(=O)C(Cl)Cl)CC[C@H]2[C@@H]3CCC4=CC(=O)C=C[C@]4(C)[C@H]3[C@@H](O)C[C@@]21C` [Compound C, Isopropyl 17α-dichloroacetoxy-11β-hydroxyandrosta-1,4-dien-3-one-17β-carboxylate] came in with an amount remaining at 2 h of more than 90% and an amount remaining at 2 h, 10 µM of 100%. In series [1], the RBA amounted to 117, the half-inhibitory concentration (IC50) was determined as 69.8 nM and the “Relative binding affinity (RBA)” value worked out at 117. This compound also gave a Vasoconstriction activity in series [2] (3 Hours, 10 mM) of 4. The compound also yielded a Vasoconstriction activity in series [2] (20 Hours, 10 mM) of 1.

The values above are taken from patent US5981517A, “Androstene derivatives” (priority 1997, dated 1999).
